In patent publication US20130252816A1, “HERBICIDAL COMPOSITION AND USE THEREOF” (Syngenta Crop Protection LLC, priority 2010, published 2013):

Legend:
[1] = system: broadleaf weed and grass species; assay: Example 2: overall statement on alcohol ethoxylates without glyphosate; format: in vivo; details: absence of glyphosate
Source text: (§1) The effect of different types of alcohol ethoxylate (branched—Genapol X-series, and unbranched—Genapol O-series, differing degrees of ethoxylation, see Table 3 below for more details), on unwanted vegetation (broadleaf weed and grass species), in the absence of glyphosate, was investigated and compared to untreated (water only) control weeds.
(§2) Troughs (measuring 16 cm by 13 cm by 5 cm) were filled with local field soil. Seeds of Veronica persica, Stellaria media, Trifolium repens and Poa annua were sown 24 days before application of test samples. Plants were grown in the glasshouse at 18 to 20° C. and 60% relative humidity. Application of alcohol ethoxylate test samples was carried out using a tracksprayer, spraying at a rate of 300 l/ha. Plants were kept in glasshouse and visual assessment of the estimated percentage damage to the plant was carried out 1, 7, and 14 days from application.
(§3) Damage was assessed as wilting, desiccation or any other kind of visual injury in comparison to the untreated control (water only).

[2] = system: Dandelions and a mixture of grasses; assay: Example 3: overall statement, Dandelions and mixture of grasses; format: in vivo; details: absence of glyphosate, 5% w/v
Protocol: (§4) The effects of different branched chain alcohol ethoxylates in admixture with glyphosate on both Dandelions and a mixture of grasses were investigated.
(§5) Dandelion samples and a mixture of grasses obtained from a meadow environment were planted into square 20 cm pots and kept and grown on in glasshouse for at least 2 weeks (18 to 20° C., 60% relative humidity).
(§6) Application of branched chain alcohol ethoxylate was carried out using a tracksprayer, spraying at a rate of 600 l/ha.
(§7) Visual assessment of the estimated percentage damage to the plant was carried out 1, 6, 13, and 20 days from application.
as §3

Poa annua [3] = assay: Example 2: alcohol ethoxylate adjuvants without glyphosate, visual % damage, tracksprayer 300 l/ha; format: in vivo
Source text: as §1, §2, §3

Veronica persica = assay: as above; format: in vivo
Source text: as §1, §2, §3

Stellaria media [4] = assay: as above; format: in vivo
Source text: as §1, §2, §3

Trifolium repens = assay: as above; format: in vivo
Source text: as §1, §2, §3

Grass mix = assay: Example 3: branched chain alcohol ethoxylates in admixture with glyphosate, visual % damage, 600 l/ha; format: in vivo, mixture of grasses; details: adjuvant where present 5% w/v
Protocol: as §4, §5, §6, §7, §3

[5] = system: broadleaf weeds and grasses; assay: Example 1: overall statement on adjuvants alone; format: in vivo; details: 1 and 6 days after treatment, adjuvant alone
Protocol: (§8) The effect of different adjuvants (see Table 1 below) on the growth of broadleaf weed and grass species was investigated and compared to untreated (water only) control weeds.
(§9) Plates, each with 48 pots measuring 2.7 cm diameter and 5 cm deep, were filled with TKS1 growing media (Floragard, Germany). Seeds of Taraxacum officinale, Stellaria media or Poa annua were sown on the surface (10 to 20 per pot). Plants were grown in glasshouse at a temperature of 18 to 20° C. and at 60% relative humidity.
(§10) Plants were treated 15 (Stellaria, Poa) and 34 (Taraxacum) days after sowing with 60 μl of a 1.25, 2.5, 5 and 10% (w/v) solution of adjuvant using a hand airbrush.
(§11) Visual assessment of the percentage damage to the plant was carried out 1 day and 6 days from application.
as §3

[6] = system: broadleaf weeds and grasses; assay: Example 4: overall statement, broadleaf weeds and grasses; format: in vivo; details: 2.5% w/v in admixture with glyphosate (Weedbuster)
Source text: The effect on broadleaf weeds and grasses of different concentrations of Genapol™ X060 (iso-tridecyl alcohol polyglycol ether with 6 moles of ethoxylation) in admixture with glyphosate was investigated.
Troughs (measuring 55 cm by 9 cm by 8.5 cm) were filled with local field soil. Seeds of Taraxacum officinale, Urtica dioica, Trifolium repens and Poa annua were sown 41 days before application of test samples, and seeds of Stellaria media, Veronica persica, Agropyron repens and Lolium multiflorum were sown 24 days before application of test samples. Plants were grown in the glasshouse at 18 to 20° C. and 60% relative humidity. One week before application of test samples, troughs were placed outside (but covered).
Application of test samples was carried out using a tracksprayer, spraying at a rate of 300 l/ha. Treated plants were kept outside and visual assessment of the percentage damage to the plants was carried out at 1, 7, 14, and 21 days after application.
as §3

Poa annua [7] = assay: Example 1: adjuvants alone, visual % damage, pots in glasshouse; format: in vivo
Protocol: as §8, §9, §10, §11, §3

Stellaria media [8] = assay: as above; format: in vivo
Protocol: as §8, §9, §10, §11, §3

Taraxacum officinale = assay: as above; format: in vivo
Protocol: as §8, §9, §10, §11, §3

Dandelion = assay: Example 3: branched chain alcohol ethoxylates in admixture with glyphosate, visual % damage, 600 l/ha; format: in vivo; details: adjuvant where present 5% w/v
Protocol: as §4, §5, §6, §7, §3

Iso-tridecyl alcohol polyglycol ether with 6 moles of ethoxylation [GenapolX060]
course of damage over time (recovery) [1]: the level of damage decreases from day 14 onwards | course of damage over time (recovery) [2]: the level of damage decreases from day 13 onwards | mean % damage 1 daa Poa annua (Poa annua [3]; adjuvant 1% w/v): 20% | mean % damage 7 daa Poa annua (Poa annua [3]; adjuvant 1% w/v): 30% | mean % damage 14 daa Poa annua (Poa annua [3]; adjuvant 1% w/v): 10% | mean % damage 1 daa Poa annua (Poa annua [3]; adjuvant 1.5% w/v): 20% | mean % damage 7 daa Poa annua (Poa annua [3]; adjuvant 1.5% w/v): 40% | mean % damage 14 daa Poa annua (Poa annua [3]; adjuvant 1.5% w/v): 10% | mean % damage 1 daa Poa annua (Poa annua [3]; adjuvant 2% w/v): 40% | mean % damage 7 daa Poa annua (Poa annua [3]; adjuvant 2% w/v): 50% | mean % damage 14 daa Poa annua (Poa annua [3]; adjuvant 2% w/v): 15% | mean % damage 1 daa Poa annua (Poa annua [3]; adjuvant 2.5% w/v): 40% | mean % damage 7 daa Poa annua (Poa annua [3]; adjuvant 2.5% w/v): 50% | mean % damage 14 daa Poa annua (Poa annua [3]; adjuvant 2.5% w/v): 0% | mean % damage 1 daa Veronica persica (Veronica persica; adjuvant 1% w/v): 10% | mean % damage 7 daa Veronica persica (Veronica persica; adjuvant 1% w/v): 10% | mean % damage 14 daa Veronica persica (Veronica persica; adjuvant 1% w/v): 5% | mean % damage 1 daa Veronica persica (Veronica persica; adjuvant 1.5% w/v): 20% | mean % damage 7 daa Veronica persica (Veronica persica; adjuvant 1.5% w/v): 20% | mean % damage 14 daa Veronica persica (Veronica persica; adjuvant 1.5% w/v): 10% | mean % damage 1 daa Veronica persica (Veronica persica; adjuvant 2% w/v): 70% | mean % damage 7 daa Veronica persica (Veronica persica; adjuvant 2% w/v): 70% | mean % damage 14 daa Veronica persica (Veronica persica; adjuvant 2% w/v): 50% | mean % damage 1 daa Veronica persica (Veronica persica; adjuvant 2.5% w/v): 60% | mean % damage 7 daa Veronica persica (Veronica persica; adjuvant 2.5% w/v): 40% | mean % damage 14 daa Veronica persica (Veronica persica; adjuvant 2.5% w/v): 40% | mean % damage 1 daa Stellaria media (Stellaria media [4]; adjuvant 1% w/v): 5% | mean % damage 7 daa Stellaria media (Stellaria media [4]; adjuvant 1% w/v): 5% | mean % damage 14 daa Stellaria media (Stellaria media [4]; adjuvant 1% w/v): 0% | mean % damage 1 daa Stellaria media (Stellaria media [4]; adjuvant 1.5% w/v): 10% | mean % damage 7 daa Stellaria media (Stellaria media [4]; adjuvant 1.5% w/v): 10% | mean % damage 14 daa Stellaria media (Stellaria media [4]; adjuvant 1.5% w/v): 0% | mean % damage 1 daa Stellaria media (Stellaria media [4]; adjuvant 2% w/v): 10% | mean % damage 7 daa Stellaria media (Stellaria media [4]; adjuvant 2% w/v): 30% | mean % damage 14 daa Stellaria media (Stellaria media [4]; adjuvant 2% w/v): 10% | mean % damage 1 daa Stellaria media (Stellaria media [4]; adjuvant 2.5% w/v): 20% | mean % damage 7 daa Stellaria media (Stellaria media [4]; adjuvant 2.5% w/v): 40% | mean % damage 14 daa Stellaria media (Stellaria media [4]; adjuvant 2.5% w/v): 20% | mean % damage 1 daa Trifolium repens (Trifolium repens; adjuvant 1% w/v): 40% | mean % damage 7 daa Trifolium repens (Trifolium repens; adjuvant 1% w/v): 40% | mean % damage 14 daa Trifolium repens (Trifolium repens; adjuvant 1% w/v): 0% | mean % damage 1 daa Trifolium repens (Trifolium repens; adjuvant 1.5% w/v): 60% | mean % damage 7 daa Trifolium repens (Trifolium repens; adjuvant 1.5% w/v): 50% | mean % damage 14 daa Trifolium repens (Trifolium repens; adjuvant 1.5% w/v): 0% | mean % damage 1 daa Trifolium repens (Trifolium repens; adjuvant 2% w/v): 70% | mean % damage 7 daa Trifolium repens (Trifolium repens; adjuvant 2% w/v): 60% | mean % damage 14 daa Trifolium repens (Trifolium repens; adjuvant 2% w/v): 0% | mean % damage 1 daa Trifolium repens (Trifolium repens; adjuvant 2.5% w/v): 70% | mean % damage 7 daa Trifolium repens (Trifolium repens; adjuvant 2.5% w/v): 60% | mean % damage 14 daa Trifolium repens (Trifolium repens; adjuvant 2.5% w/v): 5% | % Damage 1 daa Grass mix (Grass mix): 20% | % Damage 6 daa Grass mix (Grass mix): 50% | % Damage 13 daa Grass mix (Grass mix): 40% | % Damage 20 daa Grass mix (Grass mix): 40% | visual symptoms of phytotoxicity [5]: comparatively high level of visual symptoms of phytoxicity | rapid symptomology versus Roundup and Weedbuster [6]: more rapid symptomology against all weeds in comparison to Roundup | avg % damage 1 DAA Poa annua (Poa annua [7]; adjuvant 1.25% w/v): 45% | avg % damage 6 DAA Poa annua (Poa annua [7]; adjuvant 1.25% w/v): 50% | avg % damage 1 DAA Poa annua (Poa annua [7]; adjuvant 2.5% w/v): 55% | avg % damage 6 DAA Poa annua (Poa annua [7]; adjuvant 2.5% w/v): 70% | avg % damage 1 DAA Poa annua (Poa annua [7]; adjuvant 5% w/v): 75% | avg % damage 6 DAA Poa annua (Poa annua [7]; adjuvant 5% w/v): 80% | avg % damage 1 DAA Poa annua (Poa annua [7]; adjuvant 10% w/v): 70% | avg % damage 6 DAA Poa annua (Poa annua [7]; adjuvant 10% w/v): 80% | avg % damage 1 DAA Stellaria media (Stellaria media [8]; adjuvant 1.25% w/v): 25% | avg % damage 6 DAA Stellaria media (Stellaria media [8]; adjuvant 1.25% w/v): 35% | avg % damage 1 DAA Stellaria media (Stellaria media [8]; adjuvant 2.5% w/v): 30% | avg % damage 6 DAA Stellaria media (Stellaria media [8]; adjuvant 2.5% w/v): 40% | avg % damage 1 DAA Stellaria media (Stellaria media [8]; adjuvant 5% w/v): 35% | avg % damage 6 DAA Stellaria media (Stellaria media [8]; adjuvant 5% w/v): 65% | avg % damage 1 DAA Stellaria media (Stellaria media [8]; adjuvant 10% w/v): 60% | avg % damage 6 DAA Stellaria media (Stellaria media [8]; adjuvant 10% w/v): 85% | avg % damage 1 DAA Taraxacum officinale (Taraxacum officinale; adjuvant 1.25% w/v): 5% | avg % damage 6 DAA Taraxacum officinale (Taraxacum officinale; adjuvant 1.25% w/v): 20% | avg % damage 1 DAA Taraxacum officinale (Taraxacum officinale; adjuvant 2.5% w/v): 10% | avg % damage 6 DAA Taraxacum officinale (Taraxacum officinale; adjuvant 2.5% w/v): 20% | avg % damage 1 DAA Taraxacum officinale (Taraxacum officinale; adjuvant 5% w/v): 30% | avg % damage 6 DAA Taraxacum officinale (Taraxacum officinale; adjuvant 5% w/v): 40% | avg % damage 1 DAA Taraxacum officinale (Taraxacum officinale; adjuvant 10% w/v): 45% | avg % damage 6 DAA Taraxacum officinale (Taraxacum officinale; adjuvant 10% w/v): 35% | % Damage 1 daa Dandelion (Dandelion): 40% | % Damage 6 daa Dandelion (Dandelion): 50% | % Damage 13 daa Dandelion (Dandelion): 30% | % Damage 20 daa Dandelion (Dandelion): 20%
